#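 Five concentrations, 48 hours, 96-well plates. GI50 marks 50% less growth. TGI marks complete inhibition of growth.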
# How the values were obtained:
# Assay in all cases: DTP human tumour cell line panel, 48 h
# [1] = tested on: SR leukemia
# [2] = tested on: NCI/ADR-RES ovarian
# [3] = tested on: U251 CNS
# [4] = tested on: A549 NSCLC
# [5] = tested on: M14 melanoma
# [6] = tested on: UACC-62 melanoma
# [7] = tested on: MDA-MB-231 breast
# [8] = tested on: EKVX NSCLC
# [9] = tested on: K-562 leukemia
Structure (SMILES),TGI [1] [µM],TGI [2] [µM],TGI [3] [µM],TGI [4] [µM],TGI [5] [µM],TGI [6] [µM],TGI [7] [µM],TGI [8] [µM],TGI [9] [µM],GI50 [1] [µM],GI50 [2] [µM],GI50 [3] [µM],GI50 [4] [µM],GI50 [5] [µM],GI50 [6] [µM],GI50 [7] [µM],GI50 [8] [µM]
C[N+]12C=CC=C1C(N1CCCC1)c1sc(-c3ccc(Cl)cc3)cc12 (stereo unspecified),50.1,> 100,24.5,87.6,30.9,28.4,35.5,79,,,,,,,,,
Nc1c2ccccc2nc2ccc(C(=O)Nc3ccc(S(N)(=O)=O)cc3)cc12,> 100,> 100,> 100,> 100,> 100,> 100,> 100,> 100,> 100,,,,,,,,
O=S(=O)(CC#CCS(=O)(=O)c1ccccc1)c1ccccc1,> 100,> 83,24.5,37.5,4.36,11.5,26.5,12.1,,,,,,,,,
CN(C)/C=C/c1ccnc2c1C(=O)c1ccccc1C2=O,,57.4,49.7,> 56.7,4.16,2.9,> 89,44.3,> 47.1,,,,,,,,
CN(C)CCCN1c2ccc3ccccc3c2Sc2cccc(Cl)c21,,23.4,4.72,19,3.58,4.82,8.07,13.5,3.77,,,,,,,,
NC(N)=NS(=O)(=O)c1ccc(NC(=O)c2c3ccccc3nc3ccccc23)cc1,> 100,> 100,> 100,> 100,> 100,> 100,> 100,> 100,,,,,,,,,
COc1cc(C2c3cc4c(c(O)c3C(=O)C3CCC(=O)N32)OCO4)cc(OC)c1OC (stereo unspecified),> 100,> 100,> 100,> 100,> 100,> 100,,> 100,> 100,,,,,,,,
COc1cccc(C(=O)C(O)c2cccc(OC)c2OC)c1OC (stereo unspecified),> 100,> 100,> 100,> 100,> 100,> 100,> 100,> 100,,,,,,,,,
N#C/C(=C/NC(=S)Nc1ccc(S(N)(=O)=O)cc1)C(N)=O,> 100,,> 100,> 100,> 100,> 100,,> 100,,,,,,,,,
O=c1[nH]/c(=C/c2ccc(OCc3ccccc3)cn2)c(=O)[nH]/c1=C/c1cccnc1,> 100,1.33,> 100,> 100,> 22.8,,,> 75.2,,,,,,,,,
O=C(CSCC(=O)N/N=C\c1cc(Br)cc(Br)c1O)N/N=C\c1cc(Br)cc(Br)c1O,42,> 100,22.3,> 100,34.8,39.7,,> 100,80.1,,,,,,,,
COC(=O)C1(C(=O)OC)CC2=C(S(=O)(=O)c3ccccc3)C[C@@H](C#N)[C@H]2C1,,> 100,> 100,> 100,> 100,,> 100,> 100,> 100,,,,,,,,
CC(C)(C)OC(=O)N(CCCN)CCCCN(CCCN)C(=O)OC(C)(C)C,> 100,> 100,> 100,> 100,> 100,> 100,,> 100,> 100,,,,,,,,
Cc1[nH]c(=O)nc2c1C(=O)N(C(C)C)C(NC(C)C)S2 (stereo unspecified),,> 100,> 100,> 100,> 100,> 100,> 100,> 100,> 100,,,,,,,,
C=CCn1c(=O)c(-c2ccccc2)c(O)c2ccccc21,> 100,> 100,> 100,> 100,,,> 100,> 100,> 100,,,,,,,,
CC(C)(C)OC(=O)NCCNC(=O)OCc1ccccc1,> 100,> 100,> 100,> 100,> 100,> 100,,> 100,> 100,,,,,,,,
CCC(c1ccc(N(C)C)cc1)C1NC(=S)NC1=O (stereo unspecified),> 100,> 100,> 100,> 100,> 100,,> 100,> 100,59.6,,,,,,,,
Cc1c2cccc-2c(N(C)C)cc2c1[nH]c1ccccc12,3.98,13.4,4.01,18.6,18.9,,23.8,5.05,,,,,,,,,
COC[C@@H](N=Cc1ccc(OC)cc1)C(C)C,> 100,> 100,> 100,> 100,> 100,> 100,,> 100,> 100,,,,,,,,

Structure (SMILES),TGI [1] [µM],TGI [2] [µM],TGI [3] [µM],TGI [4] [µM],TGI [5] [µM],TGI [6] [µM],TGI [7] [µM],TGI [8] [µM],TGI [9] [µM],GI50 [1] [µM],GI50 [2] [µM],GI50 [3] [µM],GI50 [4] [µM],GI50 [5] [µM],GI50 [6] [µM],GI50 [7] [µM],GI50 [8] [µM]
CCO/C=N/C1=C(C#N)C(c2ccc(OC)c(OC)c2)c2c(-c3ccccc3)nn(-c3ccccc3)c2O1 (stereo unspecified),,48.3,26.8,40.5,60,27.6,40.4,33.1,27,,,,,,,,
CCOc1c(OC)cc(CNNc2nccs2)cc1OC,> 100,> 100,> 100,> 100,> 100,,> 100,> 100,> 100,,,,,,,,
O=S(=O)(N1CCCCN(S(=O)(=O)C(F)(F)F)CCCN(S(=O)(=O)C(F)(F)F)CCCN(S(=O)(=O)C(F)(F)F)CCCCN(S(=O)(=O)C(F)(F)F)CCCN(S(=O)(=O)C(F)(F)F)CCC1)C(F)(F)F,,> 100,64.1,> 100,> 100,> 100,> 100,> 100,> 100,,,,,,,,
CC1=C2CC3=C(C)C(=O)O[C@H]3C[C@@H](C)[C@@H]2CC1,> 100,> 100,> 100,,> 100,> 100,> 100,> 100,> 100,,,,,,,,
COc1ccc2c(c1)CCC1C2CCC2(C)C1CC[C@@]2(O)CNC(=O)/C=C/c1ccc(O)c(O)c1 (stereo partly specified),59.7,5.83,4.41,29.3,7.42,5.63,10,> 100,,20.1,2.12,1.65,3.95,2.59,2.24,2.43,4.01
OB1OCc2ccccc21,> 100,57.9,> 100,> 100,> 100,> 100,> 100,,> 100,,,,,,,,
COc1cc2c(cc1C)NC(=O)/C2=C/c1c(Cl)n(C)c2ccccc12,,24.6,28,42,48.1,26.8,65.1,28.1,> 100,,,,,,,,
CC(C)(Oc1ccc(C2C[C@H]2Cl)cc1)C(=O)O (stereo partly specified),> 100,,> 100,> 100,,> 100,> 100,> 100,> 100,,,,,,,,
COC[C@H](Cc1ccccc1)N=Cc1ccccc1,> 100,> 100,> 100,> 100,> 100,> 100,,> 100,> 100,,,,,,,,
COc1c(-c2ccc3c(c2)OCO3)oc2cc3c(c(OC)c2c1=O)OCO3,,85.5,36.7,54,> 100,64.1,> 100,57.1,> 100,,,,,,,,
CC(C)(C)C(=O)C(C#N)C(=O)C(C)(C)C,50,> 100,> 100,> 100,> 100,,> 100,> 100,> 100,,,,,,,,
COc1cc(NS(C)(=O)=O)ccc1N1Cc2cnc3ccc4[nH]ccc1c4c23,,> 100,> 100,> 100,> 100,> 100,92.4,> 100,> 100,,,,,,,,
N#Cc1ccc(/C=C2\Cc3ccccc3C2=O)cc1,> 100,,,> 100,> 100,> 100,> 100,> 100,> 100,,,,,,,,
Cc1ccc(-c2c(C#N)c(O)n(NS(=O)(=O)c3ccccc3)c(=O)c2C#N)cc1,,> 100,> 100,> 100,> 100,> 100,> 100,> 100,> 100,,,,,,,,
O=c1n(CCO)nc2n1CCCN2,> 100,,> 100,> 100,> 100,> 100,> 100,> 100,> 100,,,,,,,,
CCCCCCc1cc2cc(C(=O)Nc3cccc(C(F)(F)F)c3)c(=N)oc2cc1O,4.37,7.42,3.5,10.9,6.18,6.02,7.69,11.6,,,,,,,,,
COc1ccc(N=Nc2ccc3oc(=O)c(C(=O)Nc4ccc(OC)cc4)cc3c2)cc1,87.5,51.7,30,> 100,43.5,,88.1,97.7,> 100,,,,,,,,
CCCCCCCCCCCCCCCCCc1nc(C#N)c(N)o1,33.3,,> 100,> 100,> 100,> 100,96.5,> 100,> 100,,,,,,,,

# Source: PubChem BioAssay (NCI)
